Experiments:
SARS-CoV-2 [1] = test: quantitative plaque assay for SARS-CoV-2 in VeroE6 cells; type: cell-based; design: lowest concentration with significant reduction in viral load: unit not given here; settings: for suppression of the viral burden elicited by SARS-CoV-2: MOI 0.01, 24 Hr after the initial infection, simultaneous treatment with virus plus lipid
Method: VeroE6 cells were infected with SARS-CoV-2 at an MOI=0.01 in either the absence of lipids, or presence of POPG, or PI, or POPC, at concentrations of 250 μg/ml-1000 μg/ml (SARS-CoV-2+POPG, SARS-CoV-2+PI) or the control lipid phosphatidylcholine (PC), at various concentrations (250 μg-1000 μg/ml) (SARS-CoV-2+PC). Cells were preincubated with lipids 30 mins before viral inoculation. Culture media was harvested at 24 hr and processed for quantitative plaque assay for SARS-CoV-2 (FIG. 1A) and for viral yield as a function of phospholipid concentration (FIG. 1). The data are shown as mean+/−SE for three independent experiments in log10 scale. is a graph of viral yield as a function of phospholipid concentration.
A sample holder containing 96 wells (3 plates) was provided and was plated with VeroE6 cells (a cell lineage isolated from kidney epithelial cells extracted from an African green monkey) at a concentration of 5×10^4 cells/well in 100 μl of medium. The medium utilized comprised Dulbecco's Modified Eagle Medium (DMEM), 5% fetal bovine serum (FCS), 1% L-glutamine, and 10,000 U/ml penicillin-streptomycin (PS). Here, it is noted that the antibiotics penicillin and streptomycin are commonly utilized to prevent bacterial contamination of cell cultures due to their effective combined action against gram-positive and gram-negative bacteria.
The wells were washed two times with calcium-free and magnesium-free phosphate buffered saline (PBS) (100 μl/well), and then an additional time with a culture medium consisting of DMEM, L-glutamine, 0.1% bovine serum albumin (BSA) and 10,000 U/ml PS.
The cells were then preincubated with lipids in the culture medium (100 μl/well) for 30-60 minutes at 37° C. Samples of SARS-CoV-2 virus were added at multiplicities of infection (MOI) of 0.01 and the virus was allowed to absorb for 2 hours at 37° C. […]
FIGS. 1A and 1B depicts the results obtained for quantitative plaque assay for SARS-CoV-2 (FIG. 1A) and for % viral yield as a function of phospholipid concentration (FIG. 1B).

VeroE6 cells = test: cell viability assays on VeroE6 cells; type: cell-based, African green monkey; settings: 2 mg/ml
SARS-CoV-2 [2] = test: cytopathic effect by SARS-CoV-2 in VeroE6 cells (histological images); type: cell-based; settings: 72 hrs after infection, POPG 1000 μg/ml, PI 500 μg/ml, PC 2000 μg/ml
SARS-CoV-2 [3] = type: cell-based; settings: 48 hrs; for reduction of SARS-CoV-2 mRNA expression: healthy control subjects (n=3), lipid 16 hrs before infection, 5 mg/ml POPG, 2 mg/ml PI
SARS-CoV-2 [4] = test: SARS-CoV-2 replication by qRT-PCR in differentiated nasal epithelial cells from a patient with COPD; type: cell-based; settings: 48 hrs, 5 mg/ml POPG, 2 mg/ml PI
[5] = system: primary human bronchial epithelial cells; test: 3H-leucine protein synthesis and secretion in primary human bronchial epithelial cells in ALI cultures; type: cell-based; settings: for pleiotropic inhibition of metabolism (3H-intracellular protein synthesis, 3H secreted protein): 64 h with 3H-leucine, 5 mg/mL POPG or 2 mg/ml PI in apical media; for cytotoxic effects on primary airway epithelial cells: cells from patients with COPD as worded in b103 (FIGS. 11A-11B)
Method: Bronchial epithelia cells were incubated for 64 h with 3H-leucine in either the presence, or absence of 5 mg/mL of POPG; or 2 mg/ml of PI in only the apical media. 3H-intracellular protein synthesis (FIG. 11A), and 3H secreted protein in apical media (FIG. 11B) are shown. […]

[6] = target: T1, SARS-CoV-2 S1 ECD protein (Severe acute respiratory syndrome coronavirus 2, UniProt P0DTC2); test: binding to SARS-CoV-2 S1 ECD protein
T1 construct: SARS-CoV-2 S1 ECD protein

SARS-CoV-2 [7] = test: hamster model of SARS-CoV-2 infection, intranasal treatment; type: in vivo, Syrian hamsters

| Compound | suppression of the viral burden elicited by SARS-CoV-2 (SARS-CoV-2 [1]) [%] | toxicity on VeroE6 cells (VeroE6 cells) | state of infected cell cultures (cytopathic effect) (SARS-CoV-2 [2]) | reduction of SARS-CoV-2 mRNA expression (SARS-CoV-2 [3]) [%] | replication in differentiated nasal epithelial cells of severe asthmatics (SARS-CoV-2 [3]) | attenuation of SARS-CoV-2 replication (SARS-CoV-2 [4]) [%] | pleiotropic inhibition of metabolism (3H-intracellular protein synthesis, 3H secreted protein) [5] | cytotoxic effects on primary airway epithelial cells [5] | binding to SARS-CoV-2 S1 ECD protein [6] | effect on SARS-CoV-2 replication (SARS-CoV-2 [3]; healthy control subjects, PC 10 mg/ml) | lowest concentration with significant reduction in viral load (SARS-CoV-2 [1]; 24 hr) | SARS-CoV-2 replication in hamsters (plaque assays of pharyngeal swabs) (SARS-CoV-2 [7]; PI 2 mg/animal intranasal, days 1-3) | mean turbinate viral load (SARS-CoV-2 [7]; hamsters, 2 mg PI intranasal, after 24 hours, untreated group 2.4E+04) | % inhibition of viral load (SARS-CoV-2 [7]; hamsters, single dose of 2 mg PI, after 24 hours, versus untreated) [%] |
| --- | --- | --- | --- | --- | --- | --- | --- | --- | --- | --- | --- | --- | --- | --- |
| CCCCCCCC/C=C\CCCCCCCC(=O)O[C@H](COC(=O)CCCCCCCCCCCCCCC)COP(=O)(O)OCC(O)CO (stereo partly shown) [POPG, palmitoyl-oleoyl-phosphatidylglycerol] | 90 | Neither POPG, PI or POPC elicited toxicity | remained intact | 75 | inhibit replication | 80 | does not produce pleiotropic inhibition of metabolism | neither POPG nor PI had cytotoxic effects | weak affinity and non-specific manner | – | – | – | – | – |
| phosphatidylcholine [PC, reference compound] | – | Neither POPG, PI or POPC elicited toxicity | significant cytopathic effects | – | – | – | – | – | – | did not affect SARS-CoV-2 replication | – | – | – | – |
| phosphatidylinositol [PI] | 99 | Neither POPG, PI or POPC elicited toxicity | remained intact | 87 | inhibit replication | 85 | does not produce pleiotropic inhibition of metabolism | neither POPG nor PI had cytotoxic effects | weak affinity and non-specific manner | – | ≥ 250 | inhibits SARS-CoV-2 replication | 9.3E+01 | 99.6 |

Reference: patent US20260183321A1, “TREATMENT OF CORONAVIRUS INFECTIONS WITH ANTIMICROBIAL PHOSPHOLIPID COMPOSITIONS” (NATIONAL JEWISH HEALTH, priority 2022, published 2026)
